# US11693017B2, “Small molecule biosensors” (President and Fellows of Harvard College, priority 2015, dated 2023)
# Key:
# [1] = molecular target: PRO0; settings: cited from earlier work
# [2] = tested on: degron-G-PRO1-V in HIS3 reporter strain PJ69-4a; test: Yeast spotting (HIS3 growth) assay; type: cell-based, Saccharomyces cerevisiae; settings: -his media
# Procedure: Yeast strain PJ69-4a transformed with p16C plasmids containing degron G-DIG-V variants were first inoculated from colonies into SD-ura media and grown at 30° C. overnight (16 h). 1 mL of each culture was pelleted by centrifugation (3000 rcf, 2 min), resuspended in 1 mL of fresh SD-ura and the OD660 was measured. Each culture was then diluted in SD-ura media to an OD660=0.2 and incubated at 30° C. for 4-6 hrs. 1 mL of each culture was pelleted and resuspended in sterile, distilled water and the OD660 measured again. Each transformant was then diluted to an OD660=0.1. Four 1/10 serial dilutions of each culture were prepared in sterile water (for a total of 5 solutions). 10 μL of each dilution was spotted in series onto several SD-ura-his agar plates containing 1 mM 3-aminotriazole and the indicated steroid.
# [3] = tested on: DIG-Cas9 fusion in K562 cell line containing a broken EGFP; test: TF-biosensor-Cas9 assay (EGFP repair); type: cell-based, human; settings: 48-hour incubation
# Procedure: Construct integration was carried out as for the Cas9 experiments for EGFP assays, except that the constructs were integrated into K562 containing a broken EGFP reporter construct. Introduction of an engineered nuclease along with a donor oligonucleotide can correct the EGFP and produce fluorescent cells. Upon successful integration (˜10 days after initial transfection), 500,000 cells were nucleofected with 500 ng of guide RNA (sgRNA) and 2 μg of donor oligonucleotide. Nucleofected cells were then collected with 200 μL of media and 50 μL aliquots were added to wells containing 950 μL of media. Each nucleofection was split into four separate wells containing 1 μM of digoxigenin, 25 μM of progesterone, or no small molecule. Forty-eight hours later, cells were analyzed using flow cytometry and the percentage of EGFP positive cells was determined.
# [4] = tested on: G-DIG1-V-Matα2 biosensor with pUAS::Luc in transgenic Arabidopsis plants; test: TF-biosensor assays in transgenic Arabidopsis plants; type: in vivo, Arabidopsis thaliana
# Procedure: Transgenic plants expressing the digoxin biosensor genetic circuit were tested for digoxigenin-induced luciferase expression by placing 14-16 day old plants in liquid MS (-sucrose) media supplemented with 0.1 mM digoxigenin in 24-well plates, and incubated in a growth chamber at 24° C., […] light.
# Luciferase expression was measured by imaging plants with a Stanford Photonics XR/MEGA-10 ICCD Camera, after spraying luciferin and dark adapting plants for 30 minutes. Luciferase expression was quantified using Piper Control (v.2.6.17) software. Plants from line KJM58-10 were used to test for specificity of induction by incubating plants, as described above, in 0.1 mM digoxigenin, 0.1 mM digitoxigenin, and 0.02 mM β-estradiol. All chemicals were obtained from Sigma-Aldrich (St. Louis, Mo.).
# [5] = molecular target: DIG10.3 (DIG0); settings: cited from earlier work
# [6] = tested on: LexA-based TF-biosensors with DIG1 and B42; test: Luciferase reporter assay in yeast with LexA-based TF-biosensor; type: cell-based, Saccharomyces cerevisiae; settings: reporter promoter containing LexA-binding sites
# Procedure: Yeast strains containing either a plasmid-borne or integrated luciferase reporter were transformed with p16C plasmids encoding TF-biosensors. Transformants were grown in triplicate overnight at 30° C. in SD-ura media containing 2% glucose in sterile glass test tubes on a roller drum. After ˜16 hours of growth, OD600 of each sample was measured and cultures were back diluted to OD600=0.2 in fresh SD-ura media containing steroid dissolved in DMSO or a DMSO control (1% DMSO final). Cultures were grown at 30° C. on roller drum for 8 hrs prior to taking readings. Measurement of luciferase activity was adapted from a previously reported protocol^58. 100 uL of each culture was transferred to a 96-well white NUNC plate. 100 uL of 2 mM D-luciferin in 0.1 M sodium citrate (pH 4.5) was added to each well of the plate and luminescence was measured on a Victor 3V after 5 minutes.
structure (smiles),measurement,setting,value
CC(=O)[C@H]1CC[C@H]2[C@@H]3CCC4=CC(=O)CC[C@]4(C)[C@H]3CC[C@]12C [progesterone],affinity of binding to PRO0,[1],nanomolar
same,growth of histidine auxotrophic reporter strain,[2],stimulated
CC(=O)[C@H]1CC[C@H]2[C@@H]3CC=C4C[C@@H](O)CC[C@]4(C)[C@H]3CC[C@]12C [pregnenolone],growth of histidine auxotrophic reporter strain,[2],not
C[C@]12CC[C@H](O)C[C@H]1CC[C@@H]1[C@@H]2C[C@@H](O)[C@]2(C)[C@@H](C3=CC(=O)OC3)CC[C@]12O [digoxigenin],increase in GFP positive cells relative to the mock control,[3],~18 fold
same,induction of luciferase activity compared to the uninduced control,"[4]; after 42 hours, T1 transgenic plants",30-50 fold
C[C@H]1O[C@@H](O[C@H]2[C@@H](O)C[C@H](O[C@H]3[C@@H](O)C[C@H](O[C@H]4CC[C@@]5(C)[C@H](CC[C@@H]6[C@@H]5C[C@@H](O)[C@]5(C)[C@@H](C7=CC(=O)OC7)CC[C@]65O)C4)O[C@@H]3C)O[C@@H]2C)C[C@H](O)[C@@H]1O [digoxin],affinity of binding to DIG10.3 (DIG0),[5],picomolar
same,activation in the presence of digoxin,[6],~40 fold
same,induction of the biosensor,[4]; transgenic Arabidopsis plants,capable of inducing
